Like-named read-outs stand apart in the source and are kept apart here.
Tests used:
clinical = conditions: human, in vivo
From the text: (§1) The objective of this study was to evaluate the pharmacokinetics (PK) of LEN during oral bridging period (OBP) to assess the adequacy of 300-mg PO once-weekly (QW) regimen for maintaining therapeutic concentrations between missed SC LEN doses. During OBP, sparse PK samples were collected at the start of OBP and every ˜10-12 weeks (without regard to a prespecified time since dose) until SC LEN was resumed. LEN plasma concentrations were summarized during OBP in the CAPELLA (N=57) and CALIBRATE (N=82) studies.
Participants required oral weekly bridging if an SC injection of LEN could not be administered for any reason within the protocol visit window. If 26 to 28 weeks elapsed since the last SC injection, and if clinically appropriate to continue LEN, participants started oral LEN 300 mg (1 tablet) once a week at the oral bridging visit(s) and continued weekly dosing on the same day of the week. If more than 28 weeks elapsed since the last SC injection, and if clinically appropriate to continue LEN, participants restarted the oral lead-in at the oral bridging visits and continued oral weekly dosing on the same day of the week, until SC LEN was administered, as shown in Table 6.
Oral bridging day was calculated from first dose date of Oral Bridging.

[1] = LEN plasma concentrations during oral bridging period, CALIBRATE (Phase 2, ARV-naive PWH); assay type: in vivo; conditions: for concentration at 1 day / concentration at 10 week / concentration at 20 week / concentration at 30 week: human, plasma, 300 mg
From the text: as §1
This Example describes a Phase 2, randomized, open-label, active-controlled, multicenter study. Participants in Treatment Groups 1 and 2 required oral bridging following a clinical hold imposed by the Food & Drug Administration on injectable LEN as the SC injection of LEN could not be administered within the protocol visit window. An Oral Bridging visit was completed every 10 to 12 weeks. Participants had to have met all of the inclusion criteria and none of the exclusion criteria to be included in the study.
Participants in Treatment Groups 1 and 2 required oral weekly bridging when SC injection of LEN could not be administered due to the LEN clinical hold. • If 26 to 28 weeks elapsed since the last SC injection and if clinically appropriate to continue LEN, oral LEN 300 mg (1 tablet) once a week was started at oral bridging visits and continued weekly dosing on the same day of the week. • If more than 28 weeks elapsed since the last SC injection and if clinically appropriate to continue LEN, the oral lead-in was restarted at the oral bridging visit and the participant continued oral weekly dosing on the same day of the week, until SC LEN was administered, as shown in Table 9. • Participants continued receiving oral weekly LEN 300 mg until they received their next SC LEN injection. • Oral bridging visits were completed every 10-12 weeks. Additional visits during the oral weekly administration were conducted perd investigator's discretion.

[2] = tested on: HIV-1 capsid LEN resistance mutations; conditions: for Fold decrease in LEN susceptibility: 1 participant
From the text: In HTE participants (Example 4), the resistance analysis population (RAP) during the oral bridging period included 9 participants (16%, 9/57) who met the criteria for resistance analysis, including 4 participants also present in the previous analysis. […];

[3] = Exposure-response analyses for efficacy and safety (PopPK-derived exposures); assay type: in vivo, human
Procedure: Exposure-response relationships for LEN were evaluated in HTE PWH with HIV-1 RNA<50 copies/mL at the oral bridging baseline in the Phase 2/3 study described in Example 4, using LEN exposure parameters (Ctrough, Cavg, and Cmax) derived from PopPK modeling.
Exposure-safety relationships for LEN were evaluated in the HTE PWH studies described in Example 4 (N=55), and in treatment-naive PWH in the study described in Example 5 (N=82) who received the oral bridging LEN regimen. Exposure-safety evaluations used LEN exposure metrics (Cavg, Ctrough, and Cmax) derived from PopPK analysis and the 5 most common treatment-emergent adverse events (TEAEs) were evaluated in relation to presence/absence in the LEN group across the entire oral bridging period in the two studies separately and combined (excluding infections and infestations AEs and injection site reactions).

[4] = Safety during oral bridging, studies of Examples 4-5 together
[5] = po, Lower 90% CI of Concentration
[6] = po, Lower 90% CI of LEN concentration
[7] = SC LEN total, SC LEN resumption visit
[8] = Treatment Group 1, SC LEN resumption visit
[9] = Treatment Group 2, SC LEN resumption visit

With `CC(C)(C#Cc1ccc(-c2ccc(Cl)c3c(NS(C)(=O)=O)nn(CC(F)(F)F)c23)c([C@H](Cc2cc(F)cc(F)c2)NC(=O)Cn2nc(C(F)(F)F)c3c2C(F)(F)[C@@H]2C[C@H]32)n1)S(C)(=O)=O` [LEN, N—((S)-1-(3-(4-chloro-3-(methylsulfonamido)-1-(2,2,2-trifluoroethyl)-1H-indazol-7-yl)-6-(3-methyl-3-(methylsulfonyl)but-1-yn-1-yl)pyridin-2-yl)-2-(3,5-difluorophenyl)ethyl)-2-((3bS,4aR)-5,5-difluoro-3-(trifluoromethyl)-3b,4,4a,5-tetrahydro-1H-cyclopropa [3,4]cyclopenta [1,2-c]pyrazol-1-yl) acetamide] as the molecule, how does the “Mean LEN concentration and lower bound 90% CI versus efficacy target IQ4” value (clinical) read?
Its value is greater than 15.5 ng/mL.

What about the “90% CI of mean LEN concentration” value (clinical; 10 week) of the same molecule?
Its value is 66.1, 86.3.

And the “90% CI of mean LEN concentration” value (clinical; 20 week)?
Its value is 50.4, 99.3.

And the “90% CI of mean LEN concentration” value (clinical; 30 week)?
The value was 29.9, 53.5.

And the “90% CI of mean LEN concentration” value (clinical; 1 day)?
Its value is 40.3, 51.9.

And the concentration at 10 day (clinical; po, Concentration, Mean (% CV))?
Its concentration at 10 day is 76.2 ng/mL.

And the concentration at 20 day (clinical; po, Concentration, Mean (% CV))?
Its concentration at 20 day is 74.8 ng/mL.

What about the concentration at 10 day (clinical; [5]) of the same molecule?
Its concentration at 10 day is 66.1 ng/mL.

What about the concentration at 20 day (clinical; [5]) of the same molecule?
The concentration at 20 day was 50.4 ng/mL.

What about the concentration at 30 day (clinical; [5]) of the same molecule?
The concentration at 30 day was 29.9 ng/mL.

What about the concentration at 10 week (clinical; [6]) of the same molecule?
The concentration at 10 week was 66.1 ng/mL.

What about the concentration at 20 week (clinical; [6]) of the same molecule?
Its concentration at 20 week is 50.4 ng/mL.

And the concentration at 30 week (clinical; [6])?
The concentration at 30 week was 29.9 ng/mL.

What about the concentration at 1 day (clinical; [6]) of the same molecule?
The concentration at 1 day was 40.3 ng/mL.

What about the “Mean LEN plasma concentration” value ([1]; SC LEN total (Groups 1+2), oral LEN 300 mg QW, Day 1) of the same molecule?
Its value is 27.8 (47.4) ng/mL.

And the “Lower 90% CI of Concentration” value [1, 7]?
The value was 43.6 ng/mL.

What about the “Mean LEN plasma concentration” value [1, 7] of the same molecule?
Its value is 50.7 ng/mL.

What about the “Mean LEN plasma concentration” value ([1]; SC LEN total, Week 10) of the same molecule?
Its value is 54.9 (70.8) ng/mL.

And the “Mean LEN plasma concentration” value ([1]; SC LEN total, Week 20)?
Its value is 52.5 (77.7) ng/mL.

What about the “Mean LEN plasma concentration” value ([1]; SC LEN total, Week 30) of the same molecule?
Its value is 50.1 (62.3) ng/mL.

What about the “Mean LEN plasma concentration” value ([1]; Treatment Group 1 (SC LEN + [DVY→TAF]), Day 1) of the same molecule?
Its value is 28.8 (47.7) ng/mL.

And the “Lower 90% CI of Concentration” value [1, 8]?
The value was 38.6 ng/mL.

And the “Mean LEN plasma concentration” value [1, 8]?
The value was 49.4 ng/mL.

And the “Mean LEN plasma concentration” value ([1]; Treatment Group 1, Week 10)?
The value was 50.9 (67.0) ng/mL.

What about the “Mean LEN plasma concentration” value ([1]; Treatment Group 1, Week 20) of the same molecule?
The value was 53.1 (84.5) ng/mL.

What about the “Mean LEN plasma concentration” value ([1]; Treatment Group 1, Week 30) of the same molecule?
Its value is 43.7 (74.7) ng/mL.

And the “Mean LEN plasma concentration” value ([1]; Treatment Group 2 (SC LEN + [DVY→BIC]), Day 1)?
The value was 26.7 (47.3) ng/mL.

And the “Lower 90% CI of Concentration” value [1, 9]?
Its value is 42.7 ng/mL.

What about the “Mean LEN plasma concentration” value [1, 9] of the same molecule?
The value was 52.2 ng/mL.

And the “Mean LEN plasma concentration” value ([1]; Treatment Group 2, Week 10)?
The value was 59.3 (73.6) ng/mL.

What about the “Mean LEN plasma concentration” value ([1]; Treatment Group 2, Week 20) of the same molecule?
The value was 51.9 (70.2) ng/mL.

What about the “Mean LEN plasma concentration” value ([1]; Treatment Group 2, Week 30) of the same molecule?
The value was 56.5 (62.5) ng/mL.

What about the concentration at 1 day ([1]; oral, SC LEN total (Groups 1+2), oral LEN 300 mg QW, Day 1, read-out: Mean LEN plasma concentration) of the same molecule?
Its concentration at 1 day is 27.8 ng/mL.

What about the concentration at 1 day ([1]; oral, Treatment Group 1, Day 1, read-out: Lower 90% CI of Concentration) of the same molecule?
Its concentration at 1 day is 25.2 ng/mL.

What about the concentration at 10 week ([1]; oral, Treatment Group 1, Week 10, read-out: Lower 90% CI of Concentration) of the same molecule?
Its concentration at 10 week is 41.1 ng/mL.

And the concentration at 10 week ([1]; oral, Treatment Group 1, Week 10, read-out: Mean LEN plasma concentration)?
Its concentration at 10 week is 50.9 ng/mL.

And the concentration at 20 week ([1]; oral, Treatment Group 1, Week 20, read-out: Lower 90% CI of Concentration)?
Its concentration at 20 week is 39.6 ng/mL.

And the concentration at 20 week ([1]; oral, Treatment Group 1, Week 20, read-out: Mean LEN plasma concentration)?
Its concentration at 20 week is 53.1 ng/mL.

And the concentration at 30 week ([1]; oral, Treatment Group 1, Week 30, read-out: Mean LEN plasma concentration)?
Its concentration at 30 week is 43.7 ng/mL.

What about the concentration at 1 day ([1]; oral, Treatment Group 2, Day 1, read-out: Lower 90% CI of Concentration) of the same molecule?
Its concentration at 1 day is 23 ng/mL.

What about the concentration at 10 week ([1]; oral, Treatment Group 2, Week 10, read-out: Lower 90% CI of Concentration) of the same molecule?
Its concentration at 10 week is 46.4 ng/mL.

What about the concentration at 10 week ([1]; oral, Treatment Group 2, Week 10, read-out: Mean LEN plasma concentration) of the same molecule?
The concentration at 10 week was 59.3 ng/mL.

And the concentration at 20 week ([1]; oral, Treatment Group 2, Week 20, read-out: Lower 90% CI of Concentration)?
The concentration at 20 week was 40.2 ng/mL.

What about the concentration at 20 week ([1]; oral, Treatment Group 2, Week 20, read-out: Mean LEN plasma concentration) of the same molecule?
The concentration at 20 week was 51.9 ng/mL.

And the concentration at 30 week ([1]; oral, Treatment Group 2, Week 30, read-out: Mean LEN plasma concentration)?
Its concentration at 30 week is 56.5 ng/mL.

And the concentration at 1 day ([1]; sc, SC LEN total, Day 1, read-out: Lower 90% CI of Concentration)?
The concentration at 1 day was 25.3 ng/mL.

And the concentration at 10 week ([1]; sc, SC LEN total, Week 10, read-out: Lower 90% CI of Concentration)?
The concentration at 10 week was 47.1 ng/mL.

What about the concentration at 10 week ([1]; sc, SC LEN total, Week 10, read-out: Mean LEN plasma concentration) of the same molecule?
The concentration at 10 week was 54.9 ng/mL.

And the concentration at 20 week ([1]; sc, SC LEN total, Week 20, read-out: Lower 90% CI of Concentration)?
Its concentration at 20 week is 43.7 ng/mL.

What about the concentration at 20 week ([1]; sc, SC LEN total, Week 20, read-out: Mean LEN plasma concentration) of the same molecule?
The concentration at 20 week was 52.5 ng/mL.

What about the concentration at 30 week ([1]; sc, SC LEN total, Week 30, read-out: Lower 90% CI of Concentration) of the same molecule?
Its concentration at 30 week is 24.4 ng/mL.

And the concentration at 30 week ([1]; sc, SC LEN total, Week 30, read-out: Mean LEN plasma concentration)?
Its concentration at 30 week is 50.1 ng/mL.

What about the concentration at 1 day ([1]; sc, Treatment Group 1 (SC LEN + [DVY→TAF]), Day 1, read-out: Mean LEN plasma concentration) of the same molecule?
The concentration at 1 day was 28.8 ng/mL.

What about the concentration at 1 day ([1]; sc, Treatment Group 2 (SC LEN + [DVY→BIC]), Day 1, read-out: Mean LEN plasma concentration) of the same molecule?
The concentration at 1 day was 26.7 ng/mL.

And the “Fold decrease in LEN susceptibility” value ([2]; K70N+N74K)?
Its value is 289 fold.

What about the “Mean fold decrease in LEN susceptibility” value ([2]; Q67H or Q67Q/H, 3 participants) of the same molecule?
Its value is 5.6 fold.

And the “Fold decrease in LEN susceptibility” value ([2]; Q67H+K70R+T107T/N)?
Its value is 393 fold.

And the “Exposure-safety relationship (Cavg, Ctrough, Cmax vs common AEs)” value ([3]; Examples 4 (N=55) and 5 (N=82), separately and combined)?
Its value is “lack of association between LEN exposure from oral bridging and the incidence of common AEs”.

What about the “Exposure-efficacy relationship (post hoc Ctrough vs HIV-1 RNA <50 or ≥50 copies/mL)” value ([3]; HTE PWH (Example 4)) of the same molecule?
The value was “No trend in post hoc Ctrough was observed”.

And the “Participants with HIV-1 RNA<50 copies/mL at the time SC LEN was resumed” value ([3]; HTE PWH with HIV-1 RNA<50 at OB baseline (Example 4))?
Its value is 39 of 40.

What about the “Overall safety and tolerability of oral bridging LEN 300 mg weekly” value ([4]; HTE and treatment-naive PWH) of the same molecule?
The value was “generally safe and well tolerated”.

What about the “Study drug-related SAEs” value ([4]; oral bridging period) of the same molecule?
Its value is “no study drug-related SAEs”.
